Measured values published in patent publication US20250152718A1, “NUCLEIC ACID DELIVERY MATERIAL” (National University Corporation Tokai National Higher …, priority 2022, published 2025).

Each molecule was assayed on HEK293T cells (assay: Nucleic acid delivery test (plasmid DNA with GFP gene, quantitative PCR)). Conditions: buffered saline HBS, plasmid DNA 4.7 kb with GFP gene, after 48 hours.
Type: cell-based
Procedure: Dimethylformamide solutions (10 mmol/L, 1 μL) of the aromatic compounds shown in Tables 1 and 2 were each dissolved in the buffered salines (25 μL) shown in Tables 1 and 2. However, in Comparative Example 2, no aromatic compound was used, and only dimethylformamide was used. The two resulting solutions were mixed and allowed to stand at room temperature for 30 minutes to complex the aromatic compound with the plasmid DNA. Thereafter, 450 μL of the buffered saline used for the complexification and 500 μL of Dulbecco's modified Eagle medium (DMEM, Wako) containing 10% fetal bovine serum were added, and the resulting complex was added to HEK293T cells (mammalian cells). After 48 hours, the amount of nucleic acid was measured by quantitative PCR.
In Tables 1 to 3, as for the buffered salines, “MEM” means Eagle's minimum essential medium, “TBS” means Tris-buffered saline, “HBS” means HEPES-buffered saline, and “MBS” means MES-buffered saline.
For `NCCc1ccc(-c2cc3c(-c4ccc(CCN)cc4)cc4c(-c5ccc(CCN)cc5)cc5c(-c6ccc(CCN)cc6)cc6c(-c7ccc(CCN)cc7)cc2c2c6c5c4c32)cc1` [KTU192], the “Amount of nucleic acid relative comparison with Example 1” value was 0.6727.
`NCCOc1ccc(-c2cc3c(-c4ccc(OCCN)cc4)cc4c(-c5ccc(OCCN)cc5)cc5c(-c6ccc(OCCN)cc6)cc6c(-c7ccc(OCCN)cc7)cc2c2c6c5c4c32)cc1` [KTU204] was tested, and the “Amount of nucleic acid relative comparison with Example 1” value was 0.6309.
With `c1cc(N2CCNCC2)ccc1-c1cc2c(-c3ccc(N4CCNCC4)cc3)cc3c(-c4ccc(N5CCNCC5)cc4)cc4c(-c5ccc(N6CCNCC6)cc5)cc5c(-c6ccc(N7CCNCC7)cc6)cc1c1c5c4c3c21` [KTU205] the “Amount of nucleic acid relative comparison with Example 1” value was 1.112.
